Target: T1, Dopamine beta-hydroxylase (Rattus norvegicus, UniProt Q05754)
T1 sequence (Q05754 whole entry): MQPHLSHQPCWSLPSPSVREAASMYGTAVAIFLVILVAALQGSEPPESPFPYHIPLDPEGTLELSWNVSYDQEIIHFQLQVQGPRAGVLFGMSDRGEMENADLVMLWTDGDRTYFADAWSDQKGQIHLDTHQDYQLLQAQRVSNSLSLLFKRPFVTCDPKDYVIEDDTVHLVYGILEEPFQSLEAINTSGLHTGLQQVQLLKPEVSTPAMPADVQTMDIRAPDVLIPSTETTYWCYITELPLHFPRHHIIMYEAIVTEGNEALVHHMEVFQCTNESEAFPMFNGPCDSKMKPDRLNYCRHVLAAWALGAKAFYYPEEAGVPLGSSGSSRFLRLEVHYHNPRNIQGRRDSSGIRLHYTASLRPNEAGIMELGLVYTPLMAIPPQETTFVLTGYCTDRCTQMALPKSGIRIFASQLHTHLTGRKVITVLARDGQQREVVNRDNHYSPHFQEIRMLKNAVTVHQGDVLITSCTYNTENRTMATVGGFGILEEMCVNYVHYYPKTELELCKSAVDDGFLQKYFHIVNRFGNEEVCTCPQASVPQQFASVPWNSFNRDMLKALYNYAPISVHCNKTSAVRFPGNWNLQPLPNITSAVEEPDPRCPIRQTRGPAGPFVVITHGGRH
Assay: Inhibition of dopamine beta-hydroxylase (DbetaH) […]

SMILES: COc1ccc(Cn2cc[nH]c2=S)cc1F
- IC50: 74.1 µM

SMILES: Oc1ccc(Cn2cc[nH]c2=S)cc1C(F)(F)F
- IC50: 120 µM

SMILES: COc1ccc(Cn2cc[nH]c2=S)cc1[N+](=O)[O-]
- IC50: 355 µM

SMILES: COc1cccc(OC)c1Cn1cc[nH]c1=S
- IC50: 501 µM

SMILES: COc1cccc(Cn2cc[nH]c2=S)c1
- IC50: 158 µM

SMILES: Oc1cc(Cl)c(Cn2cc[nH]c2=S)c(Cl)c1
- IC50: 75.9 µM

SMILES: COc1ccc(Cn2cc[nH]c2=S)cc1Br
- IC50: 83.2 µM

SMILES: Oc1ccc(Cn2cc[nH]c2=S)cc1O
- IC50: 2.19 µM

SMILES: Oc1ccccc1Cn1cc[nH]c1=S
- IC50: 575 µM

SMILES: Fc1cccc(Cn2cc[nH]c2=S)c1
- IC50: 5.62 µM

SMILES: COc1c(F)cc(Cn2cc[nH]c2=S)cc1F
- IC50: 36.3 µM

SMILES: S=c1[nH]ccn1Cc1cccc(Cl)c1
- IC50: 12 µM

SMILES: Cc1ccccc1Cn1cc[nH]c1=S
- IC50: 339 µM

SMILES: Fc1ccc(Cn2cc[nH]c2=S)cc1
- IC50: 46.8 µM

SMILES: Oc1ccc(Cn2cc[nH]c2=S)cc1F
- IC50: 1.51 µM

SMILES: COc1ccccc1Cn1cc[nH]c1=S
- IC50: 74.1 µM

SMILES: COc1ccc(Cn2cc[nH]c2=S)cc1
- IC50: 204 µM

SMILES: Cc1ccc(Cn2cc[nH]c2=S)cc1
- IC50: 148 µM

SMILES: S=c1[nH]ccn1Cc1ccc(Cl)cc1Cl
- IC50: 17 µM

SMILES: S=c1[nH]ccn1Cc1c(Cl)cccc1Cl
- IC50: 708 µM

SMILES: S=c1[nH]ccn1Cc1ccc(Br)cc1
- IC50: 115 µM

SMILES: COc1ccc(Cn2cc[nH]c2=S)cc1C
- IC50: 69.2 µM

SMILES: Cc1cccc(C)c1Cn1cc[nH]c1=S
- IC50: 1000 µM

SMILES: S=c1[nH]ccn1Cc1cccc(Cl)c1Cl
- IC50: 52.5 µM

SMILES: S=c1[nH]ccn1Cc1ccccc1Cl
- IC50: 355 µM

SMILES: Oc1ccc(Cn2cc[nH]c2=S)cc1Br
- IC50: 12 µM

SMILES: S=c1[nH]ccn1Cc1ccccc1
- IC50: 33.1 µM

SMILES: Oc1cccc(Cn2cc[nH]c2=S)c1
- IC50: 148 µM

SMILES: S=c1[nH]ccn1Cc1ccc(Cl)c(Cl)c1
- IC50: 28.2 µM

SMILES: S=c1[nH]ccn1Cc1c(Cl)cc(Cl)cc1Cl
- IC50: 102 µM

SMILES: Oc1c(F)c(F)c(Cn2cc[nH]c2=S)c(F)c1F
- IC50: 61.7 µM

SMILES: FC(F)(F)c1ccc(Cn2cc[nH]c2=S)cc1
- IC50: 200 µM

SMILES: COc1ccc(Cn2cc[nH]c2=S)cc1C(F)(F)F
- IC50: 174 µM

SMILES: COc1c(Cl)cc(Cn2cc[nH]c2=S)cc1Cl
- IC50: 46.8 µM

SMILES: Oc1c(F)cc(Cn2cc[nH]c2=S)cc1F
- IC50: 0.0741 µM

SMILES: S=c1[nH]ccn1Cc1cc(Cl)ccc1Cl
- IC50: 97.7 µM

SMILES: O=[N+]([O-])c1ccc(Cn2cc[nH]c2=S)cc1
- IC50: 52.5 µM

SMILES: S=c1[nH]ccn1Cc1cc(Cl)cc(Cl)c1
- IC50: 2.4 µM

SMILES: Oc1ccc(Cn2cc[nH]c2=S)cc1Cl
- IC50: 2 µM

SMILES: COc1cc(Cl)c(Cn2cc[nH]c2=S)c(Cl)c1
- IC50: 155 µM

SMILES: S=c1[nH]ccn1Cc1ccc(Cl)cc1
- IC50: 95.5 µM

SMILES: COc1ccc(Cn2cc[nH]c2=S)cc1OC
- IC50: 339 µM

SMILES: O=[N+]([O-])c1cc(Cn2cc[nH]c2=S)ccc1O
- IC50: 30.9 µM

SMILES: Oc1c(Cl)cc(Cn2cc[nH]c2=S)cc1Cl
- IC50: 0.676 µM

SMILES: Cc1cc(Cn2cc[nH]c2=S)ccc1O
- IC50: 49 µM

— ChEMBL document CHEMBL1124945, “1-(substituted-benzyl)imidazole-2(3H)-thione inhibitors of dopamine beta-hydroxylase” (J Med Chem, 1990)
